For orientation: AC50 means the concentration at which the activity in the assay is half-maximal.

The target in one assay is Vasopressin V2 receptor (Homo sapiens, UniProt P30518).
Assay [1] has as its target Voltage-dependent L-type calcium channel subunit alpha-1C (Rattus norvegicus, UniProt P22002). Type of assay: functional.
Assay [2] deals with T1, Muscarinic acetylcholine receptor M2 (Homo sapiens, UniProt P08172).
T1 sequence (P08172 whole entry): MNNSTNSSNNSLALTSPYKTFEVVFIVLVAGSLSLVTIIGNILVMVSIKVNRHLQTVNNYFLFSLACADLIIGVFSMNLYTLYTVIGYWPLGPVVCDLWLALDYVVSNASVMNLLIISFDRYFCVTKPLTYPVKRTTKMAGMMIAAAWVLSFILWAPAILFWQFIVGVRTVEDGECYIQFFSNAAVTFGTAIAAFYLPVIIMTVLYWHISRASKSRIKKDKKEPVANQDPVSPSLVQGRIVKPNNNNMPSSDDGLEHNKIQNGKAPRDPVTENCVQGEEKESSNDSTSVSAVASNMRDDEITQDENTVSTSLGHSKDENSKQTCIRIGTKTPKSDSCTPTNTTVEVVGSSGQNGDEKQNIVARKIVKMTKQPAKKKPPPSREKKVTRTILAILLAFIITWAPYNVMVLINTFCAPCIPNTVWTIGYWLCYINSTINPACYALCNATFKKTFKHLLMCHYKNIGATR
Format: functional, cell-based.

Assay [3] deals with T1, Muscarinic acetylcholine receptor M2.
The next assay concerns the target T2, Estrogen receptor (Homo sapiens, UniProt P03372).
T2 sequence (P03372 whole entry): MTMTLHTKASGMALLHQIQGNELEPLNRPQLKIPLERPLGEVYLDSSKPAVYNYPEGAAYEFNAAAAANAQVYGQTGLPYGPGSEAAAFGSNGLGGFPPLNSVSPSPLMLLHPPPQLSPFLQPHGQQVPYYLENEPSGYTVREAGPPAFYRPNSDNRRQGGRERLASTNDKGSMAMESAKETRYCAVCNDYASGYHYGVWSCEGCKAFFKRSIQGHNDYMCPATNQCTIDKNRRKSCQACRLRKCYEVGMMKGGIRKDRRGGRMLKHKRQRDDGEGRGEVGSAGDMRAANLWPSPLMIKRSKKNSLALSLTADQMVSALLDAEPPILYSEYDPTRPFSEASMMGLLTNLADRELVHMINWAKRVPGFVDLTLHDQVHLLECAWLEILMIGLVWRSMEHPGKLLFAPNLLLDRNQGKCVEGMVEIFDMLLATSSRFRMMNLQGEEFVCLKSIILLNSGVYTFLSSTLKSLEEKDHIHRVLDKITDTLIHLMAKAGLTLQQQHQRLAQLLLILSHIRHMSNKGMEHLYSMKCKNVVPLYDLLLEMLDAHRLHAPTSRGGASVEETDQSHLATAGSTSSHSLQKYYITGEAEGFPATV

The target in another assay is Prothrombin (Homo sapiens, UniProt P00734). Format: functional.
In assay [4] the target is 5-hydroxytryptamine receptor 2B (Homo sapiens, UniProt P41595). Type of assay: functional, cell-based.
The target in the next assay is T3, Glucocorticoid receptor (Homo sapiens, UniProt P04150).
T3 sequence (P04150 whole entry): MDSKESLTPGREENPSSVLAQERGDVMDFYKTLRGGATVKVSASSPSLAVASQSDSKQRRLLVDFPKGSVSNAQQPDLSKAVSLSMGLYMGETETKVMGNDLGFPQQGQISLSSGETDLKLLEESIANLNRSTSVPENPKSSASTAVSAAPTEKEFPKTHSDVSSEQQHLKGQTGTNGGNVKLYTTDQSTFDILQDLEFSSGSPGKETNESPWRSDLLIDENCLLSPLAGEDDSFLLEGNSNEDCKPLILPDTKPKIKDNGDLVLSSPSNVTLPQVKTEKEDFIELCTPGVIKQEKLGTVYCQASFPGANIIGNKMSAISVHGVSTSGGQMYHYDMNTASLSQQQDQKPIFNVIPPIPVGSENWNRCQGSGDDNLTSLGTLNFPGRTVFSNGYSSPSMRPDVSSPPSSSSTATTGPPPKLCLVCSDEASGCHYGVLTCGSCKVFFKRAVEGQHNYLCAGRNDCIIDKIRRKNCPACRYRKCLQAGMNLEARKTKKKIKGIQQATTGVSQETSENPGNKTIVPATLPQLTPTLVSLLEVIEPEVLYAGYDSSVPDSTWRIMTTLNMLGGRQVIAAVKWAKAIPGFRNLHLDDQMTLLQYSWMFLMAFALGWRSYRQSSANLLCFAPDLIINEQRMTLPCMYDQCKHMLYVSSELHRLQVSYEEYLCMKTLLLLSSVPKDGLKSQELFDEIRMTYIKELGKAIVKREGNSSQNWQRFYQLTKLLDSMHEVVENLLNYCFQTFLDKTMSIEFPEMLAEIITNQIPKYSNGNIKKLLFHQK

The target of assay [5] is T4, Mu-type opioid receptor (Homo sapiens, UniProt P35372). Put plainly: biochemical. Format: functional.
The target in assay [6] is Prostaglandin G/H synthase 1 (Homo sapiens, UniProt P23219). Type of assay: functional.
Assay [7] concerns the target Sodium-dependent noradrenaline transporter (Homo sapiens, UniProt P23975).
The target of a further assay is T5, Thromboxane A2 receptor (Homo sapiens, UniProt P21731).
T5 sequence (P21731 whole entry): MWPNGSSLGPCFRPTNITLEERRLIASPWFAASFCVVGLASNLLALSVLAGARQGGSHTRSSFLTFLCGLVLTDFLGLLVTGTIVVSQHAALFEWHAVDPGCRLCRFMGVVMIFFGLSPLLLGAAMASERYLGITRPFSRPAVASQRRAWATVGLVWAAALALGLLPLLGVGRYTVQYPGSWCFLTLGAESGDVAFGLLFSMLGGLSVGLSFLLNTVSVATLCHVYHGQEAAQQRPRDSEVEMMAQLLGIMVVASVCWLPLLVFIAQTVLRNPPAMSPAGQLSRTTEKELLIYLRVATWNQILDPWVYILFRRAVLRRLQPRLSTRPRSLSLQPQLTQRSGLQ
Type of assay: functional, cell-based.

The next assay concerns the target Histamine H3 receptor (Homo sapiens, UniProt Q9Y5N1).
Assay [8] addresses T4, Mu-type opioid receptor.
Assay [9] addresses Muscarinic acetylcholine receptor M3 (Homo sapiens, UniProt P20309).
Note: assay procedure not described here.

Vasopressin V2 receptor, sequence (P30518 whole entry): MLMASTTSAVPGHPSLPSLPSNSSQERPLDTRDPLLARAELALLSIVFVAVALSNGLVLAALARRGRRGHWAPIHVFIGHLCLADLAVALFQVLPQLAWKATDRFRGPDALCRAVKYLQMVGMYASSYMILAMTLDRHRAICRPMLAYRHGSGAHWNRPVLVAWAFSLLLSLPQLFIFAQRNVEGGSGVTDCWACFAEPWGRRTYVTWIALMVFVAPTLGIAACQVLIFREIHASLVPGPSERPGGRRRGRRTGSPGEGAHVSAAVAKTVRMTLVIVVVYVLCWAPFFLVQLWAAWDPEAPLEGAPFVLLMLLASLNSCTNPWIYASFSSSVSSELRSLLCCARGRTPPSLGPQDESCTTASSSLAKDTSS
Muscarinic acetylcholine receptor M3, sequence (P20309 whole entry): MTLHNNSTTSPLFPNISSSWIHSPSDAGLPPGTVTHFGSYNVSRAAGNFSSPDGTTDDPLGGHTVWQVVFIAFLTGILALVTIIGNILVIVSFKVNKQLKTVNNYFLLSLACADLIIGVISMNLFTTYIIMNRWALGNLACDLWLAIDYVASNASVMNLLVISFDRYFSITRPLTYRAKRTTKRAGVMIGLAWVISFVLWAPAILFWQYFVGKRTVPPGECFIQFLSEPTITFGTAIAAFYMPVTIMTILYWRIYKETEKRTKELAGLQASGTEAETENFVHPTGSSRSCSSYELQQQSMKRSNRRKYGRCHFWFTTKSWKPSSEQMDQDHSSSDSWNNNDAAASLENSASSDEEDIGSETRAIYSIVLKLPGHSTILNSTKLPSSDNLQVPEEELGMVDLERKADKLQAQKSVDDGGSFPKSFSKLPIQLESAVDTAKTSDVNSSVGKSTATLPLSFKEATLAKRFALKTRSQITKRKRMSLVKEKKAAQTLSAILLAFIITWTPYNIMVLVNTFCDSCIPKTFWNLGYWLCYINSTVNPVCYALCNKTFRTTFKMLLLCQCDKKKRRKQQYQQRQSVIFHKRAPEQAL
5-hydroxytryptamine receptor 2B, sequence (P41595 whole entry): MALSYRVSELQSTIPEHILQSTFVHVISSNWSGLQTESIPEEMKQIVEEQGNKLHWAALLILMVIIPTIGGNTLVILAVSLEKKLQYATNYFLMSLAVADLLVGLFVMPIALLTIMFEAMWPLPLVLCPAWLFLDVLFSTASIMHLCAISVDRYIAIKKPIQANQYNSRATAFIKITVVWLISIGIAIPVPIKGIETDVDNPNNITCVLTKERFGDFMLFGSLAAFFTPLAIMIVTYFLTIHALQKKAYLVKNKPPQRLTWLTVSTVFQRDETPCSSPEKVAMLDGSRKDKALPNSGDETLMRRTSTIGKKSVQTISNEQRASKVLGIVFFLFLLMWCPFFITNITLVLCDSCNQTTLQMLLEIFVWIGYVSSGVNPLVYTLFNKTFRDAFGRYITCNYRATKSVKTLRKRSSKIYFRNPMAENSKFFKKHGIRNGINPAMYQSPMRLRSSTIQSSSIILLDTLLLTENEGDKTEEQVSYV
Sodium-dependent noradrenaline transporter, sequence (P23975 whole entry): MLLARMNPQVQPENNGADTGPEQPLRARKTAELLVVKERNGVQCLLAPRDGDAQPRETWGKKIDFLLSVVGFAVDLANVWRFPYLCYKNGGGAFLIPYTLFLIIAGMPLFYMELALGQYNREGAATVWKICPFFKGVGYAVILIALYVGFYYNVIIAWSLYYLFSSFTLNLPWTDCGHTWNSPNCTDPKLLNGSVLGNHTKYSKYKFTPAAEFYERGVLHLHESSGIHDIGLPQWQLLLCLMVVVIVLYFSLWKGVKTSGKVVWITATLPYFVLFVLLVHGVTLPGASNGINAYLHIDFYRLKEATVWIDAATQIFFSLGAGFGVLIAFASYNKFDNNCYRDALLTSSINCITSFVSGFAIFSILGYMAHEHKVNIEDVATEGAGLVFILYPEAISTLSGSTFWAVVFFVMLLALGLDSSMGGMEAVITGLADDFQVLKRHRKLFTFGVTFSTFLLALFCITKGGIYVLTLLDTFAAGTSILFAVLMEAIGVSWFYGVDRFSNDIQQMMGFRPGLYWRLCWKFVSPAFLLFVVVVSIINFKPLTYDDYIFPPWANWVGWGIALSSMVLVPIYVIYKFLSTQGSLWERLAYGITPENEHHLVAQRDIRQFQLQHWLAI
Histamine H3 receptor, sequence (Q9Y5N1 whole entry): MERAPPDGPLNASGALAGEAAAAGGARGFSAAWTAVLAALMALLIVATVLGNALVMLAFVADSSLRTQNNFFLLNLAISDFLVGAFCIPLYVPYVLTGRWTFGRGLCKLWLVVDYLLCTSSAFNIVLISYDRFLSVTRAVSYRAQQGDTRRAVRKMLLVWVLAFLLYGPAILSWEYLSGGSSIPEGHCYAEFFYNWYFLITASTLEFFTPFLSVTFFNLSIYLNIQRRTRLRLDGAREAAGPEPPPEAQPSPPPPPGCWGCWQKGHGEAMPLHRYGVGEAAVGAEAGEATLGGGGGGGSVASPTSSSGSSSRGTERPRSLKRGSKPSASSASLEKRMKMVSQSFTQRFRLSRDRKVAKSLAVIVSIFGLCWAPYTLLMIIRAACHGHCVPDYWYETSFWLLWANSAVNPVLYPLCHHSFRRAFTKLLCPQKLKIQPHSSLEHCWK
T4 sequence (P35372 whole entry): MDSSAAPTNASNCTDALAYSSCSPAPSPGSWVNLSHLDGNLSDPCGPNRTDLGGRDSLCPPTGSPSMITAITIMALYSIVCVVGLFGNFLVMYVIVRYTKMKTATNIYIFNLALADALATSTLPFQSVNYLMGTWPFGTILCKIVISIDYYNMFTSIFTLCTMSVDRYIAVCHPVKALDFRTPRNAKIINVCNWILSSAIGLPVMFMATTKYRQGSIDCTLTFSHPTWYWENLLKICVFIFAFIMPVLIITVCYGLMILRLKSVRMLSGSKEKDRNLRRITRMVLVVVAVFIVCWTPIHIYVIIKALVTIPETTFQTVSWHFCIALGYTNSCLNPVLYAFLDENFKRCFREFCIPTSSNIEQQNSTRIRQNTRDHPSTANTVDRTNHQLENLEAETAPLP
Voltage-dependent L-type calcium channel subunit alpha-1C, sequence (P22002 whole entry): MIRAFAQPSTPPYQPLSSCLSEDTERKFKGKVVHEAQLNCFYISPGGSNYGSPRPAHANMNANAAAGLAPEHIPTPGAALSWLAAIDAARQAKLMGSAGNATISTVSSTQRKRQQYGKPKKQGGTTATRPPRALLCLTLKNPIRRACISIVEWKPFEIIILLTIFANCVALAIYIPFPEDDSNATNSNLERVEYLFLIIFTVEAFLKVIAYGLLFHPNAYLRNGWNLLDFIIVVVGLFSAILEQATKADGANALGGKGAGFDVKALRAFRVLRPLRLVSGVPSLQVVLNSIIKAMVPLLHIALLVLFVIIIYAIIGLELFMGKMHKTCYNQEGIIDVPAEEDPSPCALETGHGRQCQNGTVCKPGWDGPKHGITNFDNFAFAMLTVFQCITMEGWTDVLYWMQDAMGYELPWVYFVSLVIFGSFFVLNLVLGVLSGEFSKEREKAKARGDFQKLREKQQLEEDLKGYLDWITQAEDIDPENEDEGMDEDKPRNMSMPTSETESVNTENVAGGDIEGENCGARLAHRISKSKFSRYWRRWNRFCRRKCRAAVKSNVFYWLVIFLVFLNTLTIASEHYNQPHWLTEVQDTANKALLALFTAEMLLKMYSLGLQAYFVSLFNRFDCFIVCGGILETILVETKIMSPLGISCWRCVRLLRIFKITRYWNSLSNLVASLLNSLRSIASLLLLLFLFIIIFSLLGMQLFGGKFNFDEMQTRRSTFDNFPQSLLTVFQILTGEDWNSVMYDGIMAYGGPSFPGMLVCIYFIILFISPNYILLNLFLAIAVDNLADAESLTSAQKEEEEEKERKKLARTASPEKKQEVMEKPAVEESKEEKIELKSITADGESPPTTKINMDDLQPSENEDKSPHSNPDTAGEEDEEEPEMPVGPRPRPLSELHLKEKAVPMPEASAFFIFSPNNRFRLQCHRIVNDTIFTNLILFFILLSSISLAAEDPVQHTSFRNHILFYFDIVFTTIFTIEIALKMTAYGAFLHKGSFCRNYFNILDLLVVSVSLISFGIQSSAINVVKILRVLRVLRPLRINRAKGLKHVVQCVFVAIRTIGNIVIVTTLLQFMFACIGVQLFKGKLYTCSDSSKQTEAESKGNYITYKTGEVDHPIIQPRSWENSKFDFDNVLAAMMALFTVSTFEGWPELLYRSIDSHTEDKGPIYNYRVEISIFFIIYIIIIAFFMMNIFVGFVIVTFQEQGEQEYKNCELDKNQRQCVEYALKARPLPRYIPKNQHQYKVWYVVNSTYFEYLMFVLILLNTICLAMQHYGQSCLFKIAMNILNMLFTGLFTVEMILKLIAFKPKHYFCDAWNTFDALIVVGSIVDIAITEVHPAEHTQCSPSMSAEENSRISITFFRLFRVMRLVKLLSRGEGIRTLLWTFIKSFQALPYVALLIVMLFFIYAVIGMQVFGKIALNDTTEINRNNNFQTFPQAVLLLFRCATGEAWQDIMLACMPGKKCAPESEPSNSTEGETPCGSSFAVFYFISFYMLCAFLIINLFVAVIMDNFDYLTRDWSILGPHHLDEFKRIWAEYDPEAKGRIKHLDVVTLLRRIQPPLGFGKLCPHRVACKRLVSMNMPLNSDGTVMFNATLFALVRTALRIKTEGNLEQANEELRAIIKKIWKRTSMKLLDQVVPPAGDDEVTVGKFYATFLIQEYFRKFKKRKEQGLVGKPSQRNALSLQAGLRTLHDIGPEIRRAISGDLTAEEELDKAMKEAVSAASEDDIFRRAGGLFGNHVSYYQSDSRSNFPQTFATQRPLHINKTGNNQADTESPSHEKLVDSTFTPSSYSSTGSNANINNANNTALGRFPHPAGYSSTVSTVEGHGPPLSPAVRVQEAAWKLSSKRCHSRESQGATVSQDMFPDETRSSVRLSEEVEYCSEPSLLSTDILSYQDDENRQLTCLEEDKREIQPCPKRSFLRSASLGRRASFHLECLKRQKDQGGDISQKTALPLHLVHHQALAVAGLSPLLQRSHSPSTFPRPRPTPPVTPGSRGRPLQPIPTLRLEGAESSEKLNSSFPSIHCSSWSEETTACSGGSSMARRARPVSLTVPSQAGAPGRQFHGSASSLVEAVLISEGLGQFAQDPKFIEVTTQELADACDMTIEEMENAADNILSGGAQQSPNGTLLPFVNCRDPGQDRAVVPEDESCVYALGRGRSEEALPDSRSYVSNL

Take `CS(=O)(=O)c1ccc([C@@H](O)[C@@H](CO)NC(=O)C(Cl)Cl)cc1` [THIAMPHENICOL]: the AC50 (at Vasopressin V2 receptor; in [1]; in assay [2]; in [3]; on Estrogen receptor; on Prothrombin) was over 30 µM each time. Further, the AC50 (in [4]; at Glucocorticoid receptor; on Mu-type opioid receptor [5]; in [6]; in assay [7]; on Thromboxane A2 receptor) was over 30 µM each time. The molecule also displayed an AC50 on Histamine H3 receptor of over 30 µM.
As to `CCc1ccc(CCOc2ccc(CC3SC(=O)NC3=O)cc2)nc1` (stereo not drawn) [PIOGLITAZONE], the AC50 at Vasopressin V2 receptor is over 30 µM; in assay [1], over 10 µM; in assay [2] it was over 10 µM; in [3], over 30 µM; at Estrogen receptor, over 30 µM; on Prothrombin, over 30 µM. Besides, the AC50 in assay [4] is over 30 µM; at Glucocorticoid receptor, over 30 µM; on Mu-type opioid receptor [5] it was over 30 µM; in assay [6] it was over 30 µM; in assay [7], over 30 µM; at Thromboxane A2 receptor, 9.68 µM. Also, the AC50 at Mu-type opioid receptor [8] was over 10 µM.
Turning to `CC(C(=O)O)c1ccc(N2CC=CC2)c(Cl)c1` (stereo not drawn) [PIRPROFEN], the concentration at half-maximal activity (AC50) is over 30 µM on Vasopressin V2 receptor; over 10 µM in assay [1]; over 10 µM in assay [2]; over 30 µM in assay [3]; over 10 µM in [9]; over 30 µM on Estrogen receptor. The AC50 on Prothrombin is over 30 µM; in assay [4], over 30 µM; at Glucocorticoid receptor it was over 30 µM; in [6], 0.0325 µM; in assay [7], over 30 µM; at Thromboxane A2 receptor, over 30 µM. Moreover, the results for the AC50 at Mu-type opioid receptor [8] and at Histamine H3 receptor were over 30 µM and over 10 µM, respectively.
Turning to `Nc1nc(N)c2nc(-c3ccccc3)c(N)nc2n1`, the AC50 is over 30 µM on Vasopressin V2 receptor; over 30 µM in [1]; over 30 µM in assay [2]; over 30 µM in [3]; over 30 µM at Estrogen receptor; over 3 µM on Prothrombin. Besides, the AC50 in [4] was over 30 µM; on Glucocorticoid receptor, over 30 µM; at Mu-type opioid receptor [5] it was over 30 µM; in assay [6], over 30 µM; in [7], 16.1 µM; at Thromboxane A2 receptor it was over 30 µM. Moreover, the AC50 on Mu-type opioid receptor [8] was 17 µM; at Histamine H3 receptor, over 30 µM.
Consider `CC(C)C(=O)Nc1ccc([N+](=O)[O-])c(C(F)(F)F)c1` [FLUTAMIDE], for which the concentration at half-maximal activity (AC50) is over 30 µM at Vasopressin V2 receptor; over 10 µM in [1]; over 10 µM in [2]; over 30 µM in [3]; over 30 µM on Estrogen receptor; over 30 µM at Prothrombin. For the same molecule, the AC50 in assay [4] is over 30 µM; on Mu-type opioid receptor [5], over 30 µM; in assay [6], over 30 µM; in assay [7], over 30 µM; at Thromboxane A2 receptor it was 18.4 µM; at Mu-type opioid receptor [8], over 30 µM. This molecule also returned an AC50 at Histamine H3 receptor of over 30 µM.
Regarding `COc1cc(Nc2c(C#N)cnc3cc(OCCCN4CCN(C)CC4)c(OC)cc23)c(Cl)cc1Cl` [BOSUTINIB], the AC50 in [1] was over 10 µM; in assay [3], 4.94 µM; on Estrogen receptor it was over 30 µM; at Prothrombin, over 30 µM; in assay [4] it was over 30 µM; on Glucocorticoid receptor, over 30 µM. Besides, the figures for the AC50 (in assay [6]; in assay [7]; at Thromboxane A2 receptor) were over 30 µM, 24.1 µM and over 3 µM, respectively.
Consider `COc1cc2c(cc1OC)C(=O)C(CC1CCN(Cc3ccccc3)CC1)C2` (stereo not drawn) [DONEPEZIL], for which the AC50 at Vasopressin V2 receptor was over 30 µM; in assay [1], over 10 µM; in [9], over 30 µM; at Estrogen receptor, over 30 µM; on Prothrombin, over 30 µM; in [6] it was over 30 µM. Besides, the AC50 was 9.13 µM in [7], over 30 µM at Thromboxane A2 receptor, over 30 µM at Mu-type opioid receptor [8] and 2.5 µM on Histamine H3 receptor.
Consider `OCCN1CCN(CCCN2c3ccccc3C=Cc3ccccc32)CC1` [OPIPRAMOL], for which the AC50 at Vasopressin V2 receptor is over 30 µM; in assay [2], over 30 µM; in assay [3], 9.58 µM; in assay [9] it was over 30 µM; on Estrogen receptor, over 30 µM; at Prothrombin, over 30 µM. The AC50 was over 30 µM in assay [4]; over 30 µM at Glucocorticoid receptor; 15 µM at Mu-type opioid receptor [5]; over 30 µM in [6]; 6.62 µM in assay [7]; over 30 µM at Thromboxane A2 receptor. For the same molecule, on Histamine H3 receptor, the AC50 was over 30 µM.
In the case of `Oc1ncnc2[nH]ncc12` [ALLOPURINOL], the AC50 at Vasopressin V2 receptor was over 30 µM; in [1], over 10 µM; in assay [2], over 10 µM; in assay [3], over 30 µM; on Estrogen receptor it was over 30 µM; on Prothrombin, over 30 µM. For the same molecule, the AC50 (in assay [4]; at Glucocorticoid receptor; in assay [6]; in [7]; on Thromboxane A2 receptor; at Mu-type opioid receptor [8]) was over 30 µM in each case. For the same molecule, the AC50 on Histamine H3 receptor was over 30 µM.
For `O=C(COc1ccc(Cl)cc1)N1CCN(Cc2ccc3c(c2)OCO3)CC1` [FIPEXIDE], the half-maximal activity concentration (AC50) was over 30 µM in [3]; over 30 µM on Estrogen receptor; over 30 µM on Prothrombin; over 30 µM in assay [4]; over 30 µM in assay [6]; 20.4 µM in assay [7]. The molecule also returned an AC50 on Thromboxane A2 receptor of 11.3 µM.
`O=C(NC[C@H]1CN(c2ccc(N3CCOCC3=O)cc2)C(=O)O1)c1ccc(Cl)s1` [RIVAROXABAN]: the AC50 (in assay [2]; in [3]; in [9]; on Estrogen receptor; in assay [4]; in assay [6]) was over 30 µM in each case. Further, the figures for the concentration at half-maximal activity (AC50) (in assay [7]; at Thromboxane A2 receptor; on Mu-type opioid receptor [8]) were over 30 µM, over 3 µM and over 30 µM, respectively.

These data come from ChEMBL document CHEMBL5291721, “A preclinical secondary pharmacology resource illuminates target-adverse drug reaction associations of marketed drugs” (Nat Commun, 2023).
